Reference: patent US12565473B2, “Coating composition” (priority 2020, dated 2026)

What was measured:
[1] = tested on: mouse embryonic stem (mES) reporter cell lines; details: Bscl2 and Rtkn, absence and presence of S9
Rtkn = experiment: ToxTracker genotoxicity assay, Rtkn-GFP reporter induction
Bscl2 = experiment: ToxTracker genotoxicity assay, Bscl2-GFP reporter induction
[2] = with S9 rat liver extract, 3 h exposure and 24 h recovery, at 10% cytotoxicity
[3] = with S9 rat liver extract, 3 h exposure and 24 h recovery, at 25% cytotoxicity
[4] = with S9 rat liver extract, 3 h exposure and 24 h recovery, at 50% cytotoxicity
[5] = without S9 rat liver extract, 24 h exposure, at 10% cytotoxicity
[6] = without S9 rat liver extract, 24 h exposure, at 25% cytotoxicity
[7] = without S9 rat liver extract, 24 h exposure, at 50% cytotoxicity

CCCCOCC(CN1CC1C)OC(=O)NCCCCCCn1c(=O)n(CCCCCCNC(=O)OC(COCCCC)CN2CC2C)c(=O)n(CCCCCCNC(=O)OC(COCCCC)CN2CC2C)c1=O (centres unmarked) [Composition 21]
Genotoxicity test result (overall conclusion) [1]: non-genotoxic
Rtkn GFP reporter induction level (Rtkn; [2]): 1.1
Rtkn GFP reporter induction level (Rtkn; [3]): 1.0
Rtkn GFP reporter induction level (Rtkn; [4]): 0.9
Rtkn GFP reporter induction level (Rtkn; [5]): 1.1
Rtkn GFP reporter induction level (Rtkn; [6]): 1.0
Rtkn GFP reporter induction level (Rtkn; [7]): 0.9
Bscl 2 GFP reporter induction level (Bscl2; [2]): 1.0
Bscl 2 GFP reporter induction level (Bscl2; [3]): 0.9
Bscl 2 GFP reporter induction level (Bscl2; [4]): 0.7
Bscl 2 GFP reporter induction level (Bscl2; [5]): 1.1
Bscl 2 GFP reporter induction level (Bscl2; [6]): 1.1
Bscl 2 GFP reporter induction level (Bscl2; [7]): 0.9

CCCCOCC(CN1CC1C)OC(=O)NCCCCCCn1c(=O)n(CCCCCCNC(=O)OC(COCCCC)CN2CC2C)c(=O)n(CCCCCCNC(=O)OC(COCCCC)CN2CC2C)c1=O (centres unmarked) [Composition 1]
Genotoxicity test result (overall conclusion) [1]: non-genotoxic
Rtkn GFP reporter induction level (Rtkn; [2]): 0.9
Rtkn GFP reporter induction level (Rtkn; [3]): 0.8
Rtkn GFP reporter induction level (Rtkn; [4]): 0.6
Rtkn GFP reporter induction level (Rtkn; [5]): 0.8
Rtkn GFP reporter induction level (Rtkn; [6]): 0.8
Rtkn GFP reporter induction level (Rtkn; [7]): 0.6
Bscl 2 GFP reporter induction level (Bscl2; [2]): 1.0
Bscl 2 GFP reporter induction level (Bscl2; [3]): 1.0
Bscl 2 GFP reporter induction level (Bscl2; [4]): 0.9
Bscl 2 GFP reporter induction level (Bscl2; [5]): 1.1
Bscl 2 GFP reporter induction level (Bscl2; [6]): 1.1
Bscl 2 GFP reporter induction level (Bscl2; [7]): 1.1
